Source: ChEMBL document CHEMBL5260795, “Antifungal potential of marine natural products” (Eur J Med Chem, 2017)
Converted amounts (≈) assume the structure as drawn.

Columns and labels:
Aspergillus niger [1] = assay: Antifungal activity against Aspergillus niger; format: functional
Candida albicans [2] = assay: Antimicrobial activity against Candida albicans assessed as reduction of microbial microbial growth; format: functional
Fusarium oxysporum [3] = assay: Antifungal activity against Fusarium oxysporum; format: functional
Candida tropicalis [4] = assay: Antifungal activity against Candida tropicalis; format: functional
Aspergillus fumigatus [5] = assay: Antimicrobial activity against Aspergillus fumigatus; format: functional
Candida tropicalis [6] = assay: Antifungal activity against Candida tropicalis assessed as fungal growth inhibition; format: functional
Nannizzia gypsea [7] = assay: Antifungal activity against Microsporum gypseum ATCC31388; format: functional
Fusarium graminearum = assay: Antimicrobial activity against Fusarium graminearum; format: functional
Lindra thalassiae = assay: Antifungal activity against Lindra thalassiae assessed as lethal dose; format: functional; conditions: Lindriella thalassiae; read-out: LD50 (the source's name)
Cryptococcus neoformans [8] = assay: Antifungal activity against Cryptococcus neoformans measured after 3 to 4 days by agar plate diffusion method; format: functional; conditions: time 3-4 day
Botrytis fabae = assay: Antifungal activity against Botrytis fabae measured after 3 to 4 days by agar plate diffusion method; format: functional; conditions: time 3-4 day
Aspergillus niger [9] = assay: Antifungal activity against Aspergillus niger measured after 3 to 4 days by agar plate diffusion method; format: functional; conditions: time 3-4 day
Ogataea angusta = assay: Antifungal activity against Pichia angusta measured after 3 to 4 days by agar plate diffusion method; format: functional; conditions: time 3-4 day
Candida albicans [10] = assay: Antifungal activity against Candida albicans measured after 3 to 4 days by agar plate diffusion method; format: functional; conditions: time 3-4 day
Rhagastis acuta = assay: Antifungal activity against Rhagastis acuta measured after 3 to 4 days by agar plate diffusion method; format: functional; conditions: time 3-4 day
Aspergillus fumigatus [11] = assay: Antifungal activity against Aspergillus fumigatus measured after 96 hrs by two fold serial dilution technique; format: functional
Candida albicans [12] = assay: Antifungal activity against Candida albicans measured after 96 hrs by two fold serial dilution technique; format: functional
Nannizzia gypsea [13] = assay: Antifungal activity against Microsporum gypseum measured after 96 hrs by two fold serial dilution technique; format: functional
[14] = system: Trichophyton mentagrophytes; assay: Antifungal activity against Trichophyton mentagrophytes measured after 96 hrs by two fold serial dilution technique; format: functional
Aspergillus niger [15] = assay: Antifungal activity against Aspergillus niger measured after 96 hrs by two fold serial dilution technique; format: functional
Fusarium oxysporum [16] = assay: Antifungal activity against Fusarium oxysporum measured after 96 hrs by two fold serial dilution technique; format: functional
Epidermophyton floccosum = assay: Antifungal activity against Epidermophyton floccosum measured after 96 hrs by two fold serial dilution technique; format: functional
Candida albicans [17] = assay: Antifungal activity against Candida albicans ATCC 24433; format: functional
Candida tropicalis [18] = assay: Antimicrobial activity against nystatin-resistant Candida tropicalis; format: functional
Candida tropicalis [19] = assay: Antimicrobial activity against amphotericin-B-resistant Candida tropicalis; format: functional
Candida albicans [20] = assay: Antimicrobial activity against Candida albicans assessed as inhibition of microbial growth; format: functional
Cryptococcus neoformans [21] = assay: Antimicrobial activity against Cryptococcus neoformans; format: functional
Cryptococcus neoformans [22] = assay: Antifungal activity against Cryptococcus neoformans var. grubii assessed as fungal growth inhibition; format: functional
Candida albicans [23] = assay: Antifungal activity against wild type Candida albicans; format: functional, organism-based
Candida albicans [24] = assay: Antifungal activity against amphotericin-B-resistant Candida albicans; format: functional, organism-based
Nakaseomyces glabratus = assay: Antifungal activity against fluconazole-resistant Candida glabrata by CLSI protocol based macrobroth dilution method; format: functional
Pichia kudriavzevii = assay: Antifungal activity against fluconazole-resistant Candida krusei by CLSI protocol based macrobroth dilution method; format: functional
Cryptococcus neoformans [25] = assay: Antifungal activity against Cryptococcus neoformans assessed as fungal growth inhibition; format: functional

Question: `C/C(=C\[C@@H](O)C/C(C)=C/CCc1ccoc1)C/C=C/c1ccoc1` was tested. Which MIC (Aspergillus niger [1]) did it give?
Answer: 2 mg/L (≈ 6.13 µM)

Question: What about the MIC (Candida albicans [2]) of the same compound?
Answer: 0.25 mg/L

Question: And the MIC (Fusarium oxysporum [3])?
Answer: 1 mg/L (≈ 3.06 µM)

Question: What about the MIC (Candida tropicalis [4]) of the same compound?
Answer: 2 mg/L (≈ 6.13 µM)

Question: For `COc1ccc(/C=C/CCCC[C@H](C)[C@H](O)[C@@H](O)[C@H]2NC(=O)C[C@@H](O)CNC(=O)CNC(=O)[C@@H](Cc3c(C(=O)O)[nH]c4ccccc34)NC(=O)CN(C)C(=O)C[C@H]3NC(=O)C[C@H]3NC(=O)[C@H]2O)cc1`, which MIC (Aspergillus fumigatus [5]) is on record?
Answer: 0.6 mg/L (≈ 0.623 µM)

Question: How did the MIC (Candida tropicalis [6]) turn out when `CO[C@@H]1[C@@H](O)[C@H](O[C@@H]2[C@@H](O)[C@H](O[C@@H]3CO[C@@H](O[C@H]4CC[C@]5(C)[C@@H]6CC[C@]78C(=O)O[C@@](C)(C[C@H](CC(C)C)OC(C)=O)[C@H]7C(=O)C[C@@]8(C)C6=CC[C@H]5C4(C)C)[C@H](O[C@@H]4O[C@H](C)[C@@H](O[C@@H]5OC[C@@H](O)[C@H](O[C@@H]6O[C@H](CO)[C@@H](O)[C@H](OC)[C@H]6O)[C@H]5O)[C@H](O)[C@H]4O)[C@H]3O)O[C@H](CO)[C@H]2O)O[C@H](CO)[C@H]1O` was run?
Answer: 1.4 µM (≈ 2.04 µg/mL)

Question: And the MIC (Nannizzia gypsea [7])?
Answer: 1.4 µM (≈ 2.04 µg/mL)

Question: For `CC(C)C1=C2N=C3OC=CC=C[C@@]34OC[C@H]3O[C@@]4(OC3(C)C)N2[C@@H](Cc2ccccc2)C(=O)N1`, which MIC (Fusarium graminearum) is on record?
Answer: 4 mg/L (≈ 8.63 µM)

Question: How did the LC50 (Lindra thalassiae) turn out when `CC(=O)OC[C@@]1(COS(=O)(=O)[O-])C(=O)CC[C@]23C[C@]24CC[C@]2(C)[C@@H]([C@H](C)CC(=O)CC(C)C)CC[C@@]2(C)[C@H]4CC[C@@H]13.[Na+]` was run?
Answer: 0.03 mg/L

Question: How did the MIC (Cryptococcus neoformans [8]) turn out when `CC[C@@H](CC(=O)C(Cl)Cl)[C@H](C)c1ccc([N+](=O)[O-])cc1` was run?
Answer: 0.1 mg/L (≈ 0.314 µM)

Question: And the MIC (Botrytis fabae)?
Answer: 0.1 mg/L (≈ 0.314 µM)

Question: What about the MIC (Aspergillus niger [9]) of the same compound?
Answer: 0.1 mg/L (≈ 0.314 µM)

Question: What about the MIC (Ogataea angusta) of the same compound?
Answer: 0.1 mg/L (≈ 0.314 µM)

Question: What about the MIC (Candida albicans [10]) of the same compound?
Answer: 0.1 mg/L (≈ 0.314 µM)

Question: What about the MIC (Rhagastis acuta) of the same compound?
Answer: 0.1 mg/L (≈ 0.314 µM)

Question: With `CC(C)CC(=O)C[C@@H](C)[C@H]1CC[C@@]2(C)[C@H]3CC[C@H]4[C@](CO)(COS(=O)(=O)[O-])C(=O)CC[C@@]45C[C@@]35CC[C@]12C.[Na+]` as the compound, how does the LC50 (Lindra thalassiae) read?
Answer: 0.94 mg/L

Question: With `CC(=O)OCc1cc(=O)occ1O` as the compound, how does the MIC (Aspergillus fumigatus [11]) read?
Answer: 1 mg/L (≈ 5.43 µM)

Question: And the MIC (Candida albicans [12])?
Answer: 1 mg/L (≈ 5.43 µM)

Question: What about the MIC (Nannizzia gypsea [13]) of the same compound?
Answer: 1 mg/L (≈ 5.43 µM)

Question: And the MIC [14]?
Answer: 1 mg/L (≈ 5.43 µM)

Question: And the MIC (Aspergillus niger [15])?
Answer: 1 mg/L (≈ 5.43 µM)

Question: And the MIC (Fusarium oxysporum [16])?
Answer: 1 mg/L (≈ 5.43 µM)

Question: What about the MIC (Epidermophyton floccosum) of the same compound?
Answer: 1 mg/L (≈ 5.43 µM)

Question: For `CC(C)C[C@@H](C)[C@@H](O)[C@@H](C)C(=O)N[C@H](C)C(=O)N[C@@H](CCCNC(=N)N)[C@@H](O)[C@@H](O)C(=O)N[C@@H](C(=O)N[C@@H](C(=O)O)[C@@H](C)O)[C@@H](C)CC(N)=O`, which MIC (Candida albicans [17]) is on record?
Answer: 0.07 mg/L (≈ 0.0974 µM)

Question: Which MIC (Candida tropicalis [18]) does the source give for `CCCCCCCCC(O)C(O)CC/C=C\CCCCCC(O)C(N)CO` (stereo not given) here?
Answer: 0.4 mg/L (≈ 1.03 µM)

Question: And the MIC (Candida tropicalis [19])?
Answer: 0.4 mg/L (≈ 1.03 µM)

Question: And the MIC (Candida albicans [20])?
Answer: 0.4 mg/L

Question: What about the MIC (Cryptococcus neoformans [21]) of the same compound?
Answer: 0.2 mg/L (≈ 0.516 µM)

Question: Which MIC (Cryptococcus neoformans [22]) does the source give for `COC(=O)CCC[C@@H]1CC[C@@H](C#C/C=C/CCCCCC/C=C/Br)O1` here?
Answer: 4 mg/L (≈ 9.72 µM)

Question: With `COc1ccc(/C=C/CCCC[C@H](C)[C@H](O)[C@@H](O)[C@H]2NC(=O)C[C@@H](O)CNC(=O)CNC(=O)[C@@H](Cc3c(C(=O)O)[nH]c4ccccc34)NC(=O)CN(C)C(=O)C[C@H]3NC(=O)[C@H](O)[C@H]3NC(=O)[C@H]2O)cc1` as the compound, how does the MIC (Aspergillus fumigatus [5]) read?
Answer: 1.3 mg/L (≈ 1.33 µM)

Question: Which IC50 (Candida albicans [23]) does the source give for `CC(/C=C/c1ccccc1)=C\[C@H](O)[C@@H]1CC(=O)N[C@@H](CO)C(=O)NC2Cn3cc([n+]([C@@H]4O[C@H](CO)[C@H](O)[C@H](O)[C@H]4O)c3)CC(NC(=O)CCC[C@@H](C(=O)[O-])NC(=O)[C@@H](O)CNC(=O)[C@H](Cc3ccc(Br)cc3)NC(=O)[C@H]([C@@H](O)C(N)=O)NC(=O)[C@H](CC(N)=O)NC2=O)C(=O)N[C@@H]([C@H](C)O)C(=O)N[C@@H](CO)C(=O)N[C@@H](Cc2ccccc2)C(=O)N1` (stereo not given in full) here?
Answer: 7.84 mg/L (≈ 4.52 µM)

Question: And the IC50 (Candida albicans [24])?
Answer: 3.49 mg/L (≈ 2.01 µM)

Question: What does the source list for `COc1cc(/C=N/O)nc(-c2ccccn2)c1` [CAERULOMYCIN A]?
Answer: MIC (Nakaseomyces glabratus): 0.39 mg/L (≈ 1.7 µM); MIC (Pichia kudriavzevii): 0.39 mg/L (≈ 1.7 µM)

Question: How did the MIC (Cryptococcus neoformans [25]) turn out when `CCCCC(C)C/C(=C/[C@@]1(CC)OC(=O)C[C@@H]1O)CC` (stereo not given in full) [SIMPLEXOLIDE E] was run?
Answer: 3.66 mg/L (≈ 13 µM)
